Experimental data reported in patent US20080146555A1, “Uses of Kinase Inhibitors and Compositions Thereof” (GPC Biotech, Inc, priority 2004, published 2008).
Structures can show the parent of a compound that is named as a salt. Where two headings read alike, the source gives them in different places.

Key:
A129 cp80 = test: SRB cytotoxicity, cisplatin resistant cells; type: cell-based, human; settings: for IC50: Homo sapiens, 72 h, SRB
Cdk2 = Cdk2 (Homo sapiens, UniProt P24941); test: Cdk2 inhibition; type: biochemical
Description: Further inhibition results for subject compounds of the invention against other CDKs and further kinases are shown in Table 5, Table II and described in Example 6.
Table 3, Table 4, Table 5 and Table II show the results obtained for inhibition of a broad range of such kinases for subject compounds of the invention.

1A9 = test: SRB cytotoxicity, 1A9 parental cells; type: cell-based; settings: Homo sapiens, 72 h
Protocol: (§1) In these experiments, the P-glycoprotein expressing NCI-Adr resistant subline (Vickers et al., 1989. Mol Endocrinology 3 (1):157-164) was used. […] Briefly, cells were plated in 96 well dishes 24 hours prior to compound addition. Where noted, they were exposed to verapamil for 4 hours prior to compound addition and then throughout the treatment period (72 hours). The assay was terminated with the addition of cold TCA to a final concentration of 10% and the plates were incubated for one hour at 4° C. The plates were then washed 5 times with water and 100 μl of a Sulforhodamine B solution (4%) was added to each well. The plate was then incubated for 10 minutes at room temperature before removal of unbound dye by washing with 1% acetic acid.
The tubulin mutated, paclitaxel-resistant human ovarian carcinoma cell line 1A9-PTX10 and its parental paclitaxel-sensitive cell line 1A9 were derived from the A2780 human ovarian carcinoma cell line (J Biol Chem (1997) 272, 17118-17124).

CEM = test: SRB cytotoxicity, CEM parental cells; type: cell-based; settings: Homo sapiens, CCRF-CEM, 72 h
Protocol: as §1
The Camptothecin resistant CEM/C2 cells were derived from the T lymphoblastoid leukemia cell line CCRF/CEM by selection in the presence of Camptothecin in vitro (Kapoor et al., 1995. Oncology Research 7; 83-95, ATCC).
The effects of A37 and B16 were evaluated in the CCRF/CEM and CEM/C2 cells using the same SRB assay as described above, with 72-hour drug exposure.

Rsk3 = biological target: T1, Rsk3 (Homo sapiens, UniProt Q15349); test: Rsk3 kinase assay; type: biochemical
T1 construct: purchased Upstate 14-462
Protocol: • 1. 2.5× Reaction Buffer: 20 mM MOPS, pH 7.0, 1 mM EGTA. • 2. Enzyme Dilution Buffer (EDB): 20 mM MOPS, pH 7.0, 1 mM EDTA, 0.01% Brij-35, 5% glycerol, 0.1% β-mercaptoethanol, 1 mg/ml BSA. • 3. RSK3, active: Dilute to 4-40 ng/μl with EDB. Use 2.5 μl per assay point. • 4. MAPKAP Kinase 2 substrate peptide (Catalog #12-240): Prepare a 2.5 mM stock. Use 2.5 μl per assay point for a final concentration of 250 μM per assay. • 5. Magnesium/ATP Cocktail (Catalog #20-113): 75 mM MgCl2 and 500 μM ATP in 20 mM MOPS, pH 7.2, 25 mM β-glycerol phosphate, 5 mM EGTA, 1 mM sodium orthovanadate, 1 mM dithiothreitol. • 6. [γ-^32P]ATP: Stock 1 mCi/100 μl (3000 Ci/mmol, obtained from PerkinElmer, Catalog #BLU002A). Make 10 μl aliquots (100 μCi/vial). Before starting the assay, dilute the Magnesium/ATP Cocktail 1:1 with sterile, distilled water. Then dilute an aliquot of [γ-^32P]ATP to 1 μCi/μl with 90 μl of the diluted Magnesium/ATP Cocktail. […]
• 1. Add 10 μl of 2.5× Reaction Buffer per assay. • 2. Add 2.5 μl of MAPKAP Kinase 2 substrate peptide. • 3. Add 2.5 μl of RSK3, active (10-100 ng). • 4. Add 10 μl of the diluted [γ^32P]ATP mixture. • 5. Incubate for 10 minutes at 30° C. • 6. Transfer a 20 μl aliquot onto the center of a 2 cm×2 cm P81 paper. • 7. Wash the assay squares three times for 5 minutes with 0.75% phosphoric acid. • 8. Wash the assay squares once for 5 minutes with acetone. • 9. Transfer the assay squares to vial and add 5 ml scintillation cocktail. • 10. Read in scintillation counter. Compare cpm of enzyme samples to cpm of control samples that contain background control.

[1] = read-out: RPS6KA2 Inhibition (IC50)

T1 sequence (Q15349 whole entry, species assumed): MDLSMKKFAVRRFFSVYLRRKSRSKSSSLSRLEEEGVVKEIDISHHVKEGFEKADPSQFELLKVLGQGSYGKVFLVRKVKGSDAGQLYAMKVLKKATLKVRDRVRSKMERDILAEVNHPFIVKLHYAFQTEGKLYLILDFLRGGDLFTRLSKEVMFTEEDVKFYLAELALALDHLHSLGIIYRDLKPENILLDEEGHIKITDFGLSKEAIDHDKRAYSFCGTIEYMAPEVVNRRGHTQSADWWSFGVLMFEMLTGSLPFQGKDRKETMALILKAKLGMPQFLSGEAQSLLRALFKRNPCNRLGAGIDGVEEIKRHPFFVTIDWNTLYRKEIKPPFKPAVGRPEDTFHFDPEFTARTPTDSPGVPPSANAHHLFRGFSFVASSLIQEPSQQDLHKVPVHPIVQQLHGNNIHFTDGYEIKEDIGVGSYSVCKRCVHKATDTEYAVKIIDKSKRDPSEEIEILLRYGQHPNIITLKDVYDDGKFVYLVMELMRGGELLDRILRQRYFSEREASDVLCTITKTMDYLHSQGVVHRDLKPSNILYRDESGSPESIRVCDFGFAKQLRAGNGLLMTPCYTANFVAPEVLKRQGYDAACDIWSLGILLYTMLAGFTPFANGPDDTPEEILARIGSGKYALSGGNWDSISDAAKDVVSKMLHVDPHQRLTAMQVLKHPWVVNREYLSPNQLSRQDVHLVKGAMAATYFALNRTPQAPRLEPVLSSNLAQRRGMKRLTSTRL

Row | Compound | RR (relative resistance) A129 cp80 vs A129 (A129 cp80) | IC50 (A129 cp80) [µM] | IC50 (Cdk2) [µM] | IC50 (1A9) [µM] | IC50 (CEM) [µM] | IC50 (Rsk3; kinase panel, 10 μM ATP, read-out: Ribosomal protein S6 kinase 3 (Rsk3) IC50) [µM] | IC50 (Rsk3; [1]) [µM]
1 | CC(C)N1CCN(C(=O)COc2ccc(-c3n[nH]c4c3C(=O)c3c(NC(=O)NN5CCOCC5)cccc3-4)cc2)CC1 [Compound A37] | 0.7 | 0.004 | < 0.05 | 0.0133 | 0.0213 | 0.01 to 0.1 | < 0.05
2 | COCCN1CCN(Cc2ccc(-c3n[nH]c4c3C(=O)c3c(NC(=O)NN5CCOCC5)cccc3-4)cc2)CC1 [Compound B16, N-[3-(4-{[4-(2-methoxyethyl)piperazinyl]methyl}phenyl)-4-oxoindeno[2,3-d]pyrazol-5-yl](morpholin-4-ylamino)carboxamide dihydrochloride] | 0.5 | 0.0047 | < 0.005 | 0.0107 | 0.025 |  | < 0.5
